Laboratory results published in ChEMBL document CHEMBL4673239, “Discovery of Tyrosine Kinase 2 (TYK2) Inhibitor (PF-06826647) for the Treatment of Autoimmune Diseases” (J Med Chem, 2020).
≈ marks a conversion by molar mass, not a printed value. Calls of active or inactive are those of the source. The calls are words filed in the database; no cut-off is given here.

Assays:
[1] = Apparent permeability in MDCK-II cells; type: ADME, cell-based, Canis lupus familiaris; conditions: dog
[2] = Clearance in human liver microsomes assessed per mg protein; type: ADME, Microsome; conditions: read-out: CLH
[3] = Fraction unbound in human plasma; type: ADME, cell-free
[4] = Dissociation constant, basic pKa of compound; type: physicochemical
[5] = Thermodynamic solubility of the compound at pH 7.4 using crystalline form of sample; type: physicochemical; conditions: read-out: Therm_solubility
[6] = Clearance in Sprague-Dawley rat at 1 mg/kg, iv; type: ADME, organism-based; conditions: in vivo
[7] = Volume of distribution at steady state in Sprague-Dawley rat at 1 mg/kg, iv; type: ADME, organism-based; conditions: in vivo, read-out: Vdss
[8] = AUC infinity in Sprague-Dawley rat at 1 mg/kg, iv; type: ADME, organism-based; design: time infinity, route intravenous, dose 1 mg/kg; conditions: in vivo
[9] = Oral bioavailability in Sprague-Dawley rat at 3 mg/kg using crystalline form of sample; type: ADME, organism-based; conditions: in vivo
[10] = Oral bioavailability in Sprague-Dawley rat at 30 mg/kg using crystalline form of sample; type: ADME, organism-based; conditions: in vivo
[11] = Oral bioavailability in Sprague-Dawley rat at 3 mg/kg using SDD formulation; type: ADME, organism-based; conditions: in vivo
[12] = Oral bioavailability in Sprague-Dawley rat at 30 mg/kg using SDD formulation; type: ADME, organism-based; conditions: in vivo
[13] = Cmax in Sprague-Dawley rat at 3 mg/kg, po using SDD formulation; type: ADME, organism-based; design: route oral, dose 3 mg/kg; conditions: in vivo
[14] = Cmax in Sprague-Dawley rat at 30 mg/kg, po using SDD formulation; type: ADME, organism-based; design: route oral, dose 30 mg/kg; conditions: in vivo
[15] = AUC infinity in Sprague-Dawley rat at 3 mg/kg, po using SDD formulation; type: ADME, organism-based; design: time infinity, route oral, dose 3 mg/kg; conditions: in vivo
[16] = AUC infinity in Sprague-Dawley rat at 30 mg/kg, po using SDD formulation; type: ADME, organism-based; design: time infinity, route oral, dose 30 mg/kg; conditions: in vivo
[17] = Protein binding in rat plasma; type: ADME, cell-free; conditions: read-out: PPB (converted)
[18] = Protein binding in human plasma; type: ADME, cell-free
[19] = Renal excretion in rat; type: ADME, Kidney; conditions: urine, read-out: Drug excretion
[20] = Bile excretion in rat; type: ADME; conditions: read-out: Drug excretion
[21] = Unbound drug level in imiquimod-induced mouse model of skin inflammation at 1 mg/kg, po qd; type: ADME, organism-based; conditions: in vivo
[22] = Unbound drug level in imiquimod-induced mouse model of skin inflammation at 3 mg/kg, po qd; type: ADME, organism-based; conditions: in vivo
[23] = Unbound drug level in imiquimod-induced mouse model of skin inflammation at 10 mg/kg, po qd; type: ADME, organism-based; conditions: in vivo
[24] = Unbound drug level in imiquimod-induced mouse model of skin inflammation at 30 mg/kg, po qd; type: ADME, organism-based; conditions: in vivo
Mus musculus [25] = assay: Antiinflammatory activity in imiquimod-induced mouse model of skin inflammation assessed as reduction in IL12 stimulation at 1 mg/kg, po qd; type: functional; design: scale not given: the % may be the effect or the level left
Mus musculus [26] = assay: Antiinflammatory activity in imiquimod-induced mouse model of skin inflammation assessed as reduction in IL12 stimulation at 3 mg/kg, po qd; type: functional; design: scale not given: the % may be the effect or the level left
Mus musculus [27] = assay: Antiinflammatory activity in imiquimod-induced mouse model of skin inflammation assessed as reduction in IL12 stimulation at 10 mg/kg, po qd; type: functional; design: scale not given: the % may be the effect or the level left
Mus musculus [28] = assay: Antiinflammatory activity in imiquimod-induced mouse model of skin inflammation assessed as reduction in IL12 stimulation at 30 mg/kg, po qd; type: functional; design: scale not given: the % may be the effect or the level left
Mus musculus [29] = assay: Antiinflammatory activity in imiquimod-induced mouse model of skin inflammation assessed as reduction in ear swelling at 1 mg/kg, po qd; type: functional, organism-based
Mus musculus [30] = assay: Antiinflammatory activity in imiquimod-induced mouse model of skin inflammation assessed as reduction in ear swelling at 30 mg/kg, po qd relative to control; type: functional; design: scale not given: the % may be the effect or the level left
Mus musculus [31] = assay: Antiinflammatory activity in imiquimod-induced mouse model of skin inflammation assessed as reduction in ear swelling at 10 mg/kg, po qd relative to control; type: functional; design: scale not given: the % may be the effect or the level left
Mus musculus [32] = assay: Antiinflammatory activity in imiquimod-induced mouse model of skin inflammation assessed as reduction in ear swelling at 3 mg/kg, po qd relative to control; type: functional; design: scale not given: the % may be the effect or the level left
physchem = conditions: octanol/water phosphate buffer, pH 7.4
Description: Octanol/water phosphate buffer partition coefficient, log D of compound at pH 7.4 by shake-flask method

Cn1cc(-c2cn3nccc3c(-c3cnn([C@]4(CC#N)C[C@@H](C#N)C4)c3)n2)cn1 [ROPSACITINIB]
Papp [1]: 17 ×10⁻⁶ cm/s
microsomal CLint [2]: < 8 µL/min/mg
Fu [3]: 0.38
pKa [4]: < 1.7
solubility thermodynamic [5]: 0.8 µM (≈ 0.307 µg/mL)
clearance [6]: 12 mL/min/kg
Vd [7]: 1.1 L/kg
AUC(0-inf) [8]: 1380 ng·h/mL
bioavailability [9]: 15%
bioavailability [10]: 8%
bioavailability [11]: 58%
bioavailability [12]: 63%
Cmax [13]: 369 ng/mL
Cmax [14]: 2780 ng/mL
AUC(0-inf) [15]: 2390 ng·h/mL
AUC(0-inf) [16]: 25900 ng·h/mL
fraction unbound [17]: 0.82
PPB [18]: 38%
dose excreted [19]: 1.3%
dose excreted [20]: 0.9%
Drug uptake(free) [21]: 14.5 nM
Drug uptake(free) [22]: 45.7 nM
Drug uptake(free) [23]: 225 nM
Drug uptake(free) [24]: 668 nM
Activity (Mus musculus [25]): 51%
Activity (Mus musculus [26]): 77%
Activity (Mus musculus [27]): 94%
Activity (Mus musculus [28]): 98%
Activity (Mus musculus [29]): inactive
Activity (Mus musculus [30]): 46.2%
Activity (Mus musculus [31]): 34%
Activity (Mus musculus [32]): 31.3%
logD (physchem): 1.7
